From patent US12404242B2, “Compositions and methods for making and using small molecules in the treatment of cancer” (Reglagene, Inc., priority 2021, dated 2025) come the findings set out here.

In brackets after ≈: the same amount, converted by molar mass. Like-named read-outs stand apart in the source and are kept apart here.

For one series, the system named is U87 cells. Briefly: Cell viability (AlamarBlue), U87 glioblastoma cells. The class given is cell-based, human. The arrangement: key to EC50 (μM) in U87 cells: Inactive: less than 50% inhibition at the highest concentration tested at 50 μM. To be noted: 72 hours of treatment. The gist of the method:
(§1)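 Following a 72-hour incubation with escalating compound doses, applied one day after seeding, AlamarBlue fluorescence gave viability relative to untreated cells, from which half-maximal effective concentrations were calculated.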

In another series the test system is RWPE1 cells. Briefly: Cell viability (AlamarBlue), RWPE1 normal prostate cells. To be noted: normal prostate cell line; for EC50 (μM) in RWPE1 cells: 72 hours of treatment; for EC50: Homo sapiens, RWPE-1, 72 hours of treatment. Details: key to EC50 (μM) in RWPE1 cells: Inactive: less than 50% inhibition at the highest concentration tested at 50 μM. It is filed as cell-based, human. On the procedure: (§2) In another exemplary method, half maximal effective concentration (EC50) was determined for some compounds and their isomers as disclosed herein in a variety of human cancer cell lines. In brief, cells from two prostate cancer cell lines (LNCaP, 22RV1), one glioblastoma cell line (U87), one breast cancer cell line (MCF7), a glioma cell line (LN18), a normal prostate cell line (RWPE1), and a glioblastoma cell line (T98G) were plated in a multi-well plate. After 24 hours, one of the compounds herein was added to the well at increasing concentrations. After 72 hours of treatment, cell viability was assessed using AlamrBlue® (Invitrogen) and fluorescence was read using the CLARIOstar Plus Multilabel Plate Reader (BMG Labtech). Samples were normalized to no treatment controls. EC50 values were determined using GraphPad Prism.
A general note: Alamar Blue is a resazurin reagent that responds to reducing activity.

The next series relates to 22RV1 cells. Briefly: Cell viability (AlamarBlue), 22RV1 prostate cancer cells. It is filed as cell-based, human. Details: key to EC50 (μM) in 22RV1 cells: Inactive: less than 50% inhibition at the highest concentration tested at 50 μM. To be noted: 72 hours of treatment. The method, boiled down: as §1
For the next series, the system named is LNCaP cells. Briefly: Cell viability (AlamarBlue), LNCaP prostate cancer cells. The class given is cell-based, human. The arrangement: key to EC50 (μM) in LNCaP cells: Inactive: less than 50% inhibition at the highest concentration tested at 50 μM. To be noted: 72 hours of treatment. The gist of the method: as §1
Series [1] in a line: Kinetic solubility in aqueous PBS buffer (HPLC-MS). The class given is physicochemical. To be noted: kinetic from dmso stock. The procedure: In another exemplary method, central nervous system multiparameter optimization (CNS MPO) score and kinetic solubility of selected compounds was determined. CNS MPO score for compounds and their isomers disclosed herein were calculated using an algorithm that uses a weighted scoring function assessing 6 key physicochemical properties (clogP, clogD, MW, TPSA, HBD, and pKa) for blood-brain-barrier (BBB penetration). CNS MPO score ranged from 0 and 6.0 with scores≥4.0 used as a cut-off to select compounds that can have a high probability of accumulating in the CNS. Kinetic solubility of a compound is the maximum solubility of the fastest precipitating species of the compound. Kinetic solubility was determined by preparing a concentrated stock solution for compounds and their isomers disclosed herein in an organic solvent (DMSO), after which the solution was mixed with an aqueous PBS buffer and then filtered. Filtrate was tested to quantify the kinetic solubilty using HPLC-MS calibration curve. The CNS MPO Score and kinetic solubility of the compounds tested are provided in Table 7 where “ND” means not determined.

The next series concerns cancer cell. Briefly: Cancer cell viability, cell line not stated (per-compound ranges in description). The class given is cell-based. To be noted: 'In some embodiments', values worded 'about', read-out: EC50 in cancer cell viability (range stated in description). The procedure:
as §2

Setting [2] is: 'In some embodiments', values worded 'about', read-out: kinetic solubility (range stated in description).

Broadly, the EC50 is the concentration giving half of the maximal effect. As for `COC1CC(C(=O)NC(=O)Nc2ccc(Oc3ncc(Cl)cn3)c(C)c2)C1` (single isomer, unassigned) [Compound 20B, N-((4-((5-chloropyrimidin-2-yl)oxy)-3-methylphenyl)carbamoyl)-3-methoxycyclobutane-1-carboxamide], the EC50 in the series on U87 cells is 31.2 µM; in the series on 22RV1 cells, 15.3 µM; in the series on LNCaP cells it was 5 µM. Besides, the “EC50 (μM) in RWPE1 cells” value in the series with RWPE1 cells is listed as “Inactive”.

For `COC1CC(C(=O)NC(=O)Nc2ccc(Oc3nccs3)c(C)c2)C1` (single isomer, unassigned) [Compound 45A, 3-methoxy-N-((3-methyl-4-(thiazol-2-yloxy)phenyl)carbamoyl)cyclobutane-1-carboxamide], the EC50 in the series on U87 cells turned out to be 3.7 µM; with 22RV1 cells, 2.8 µM; in the series with LNCaP cells, 0.9 µM. Moreover, the “EC50 (μM) in RWPE1 cells” value in the series with RWPE1 cells was “Inactive”.

As to `COC1CC(C(=O)NC(=O)Nc2ccc(Oc3nccs3)c(C)c2)C1` (single isomer, unassigned) [Compound 45B, 3-methoxy-N-((3-methyl-4-(thiazol-2-yloxy)phenyl)carbamoyl)cyclobutane-1-carboxamide], the EC50 worked out at 12.2 µM in the series with U87 cells, 14.2 µM in the series on 22RV1 cells and 4 µM with LNCaP cells. The “EC50 (μM) in RWPE1 cells” value in the series on RWPE1 cells was “Inactive”.

On to `COC1CCC(C(=O)NC(=O)Nc2ccc(Oc3ncco3)c(C)c2)CC1` (stereo not shown) [Compound 21, 1-(4-methoxycyclohexanecarbonyl)-3-[3-methyl-4-(1,3-oxazol-2-yloxy)phenyl]urea], for which the concentration for a half-maximal effect (EC50) was determined as 20.8 µM with U87 cells (Homo sapiens, U-87 MG, 72 h); 33 µM in the series with RWPE1 cells; 24 µM with 22RV1 cells (Homo sapiens, 22Rv1, 72 h); 19.7 µM in the series with LNCaP cells (Homo sapiens, LNCaP, 72 h).

In the case of `COC1CCC(C(=O)NC(=O)Nc2ccc(Oc3cccnn3)c(C)c2)CC1` (stereo not shown) [Compound 22, 1-(4-methoxycyclohexanecarbonyl)-3-[3-methyl-4-(pyridazin-3-yloxy)phenyl]urea], the “EC50 (μM) in U87 cells” value in the series on U87 cells was “Inactive”. Also, in the series on RWPE1 cells, the “EC50 (μM) in RWPE1 cells” value is on record as “Inactive”. The “EC50 (μM) in 22RV1 cells” value in the series on 22RV1 cells was “Inactive”. Further, in the series on LNCaP cells, the “EC50 (μM) in LNCaP cells” value was “Inactive”.

For `COC1CCC(C(=O)NC(=O)Nc2ccc(Oc3ncc(Cl)cn3)cc2F)CC1` (stereo not shown) [Compound 23, 3-{4-[(5-chloropyrimidin-2-yl)oxy]-2-fluorophenyl}-1-(4-methoxycyclohexanecarbonyl)urea], the “EC50 (μM) in U87 cells” value in the series on U87 cells is given as “Inactive”. The “EC50 (μM) in RWPE1 cells” value with RWPE1 cells was “Inactive”. The compound also returned an EC50 in the series on 22RV1 cells (Homo sapiens, 22Rv1, 72 h) of 30.6 µM. In addition, in the series with LNCaP cells, the “EC50 (μM) in LNCaP cells” value is on record as “Inactive”.

On to `COC1CCC(C(=O)NC(=O)Nc2ccc(Oc3ccc(Cl)cn3)cc2F)CC1` (stereo not shown) [Compound 24, 3-{4-[(5-chloropyridin-2-yl)oxy]-2-fluorophenyl}-1-(4-methoxycyclohexanecarbonyl)urea], for which the “EC50 (μM) in U87 cells” value with U87 cells is recorded as “Inactive”. Moreover, in the series on RWPE1 cells, the EC50 turned out to be 31 µM. The “EC50 (μM) in 22RV1 cells” value in the series with 22RV1 cells was “Inactive”. In the series with LNCaP cells, the “EC50 (μM) in LNCaP cells” value is “Inactive”.

What is called solubility (kinetic) is solubility judged after dilution from a stock solution rather than from solid. For the compound `COC1CC(C(=O)NC(=O)Nc2ccc(Oc3nc4ccccc4s3)c(C)c2)C1` (stereo not shown) [Compound 56, N-((4-(benzo[d]thiazol-2-yloxy)-3-methylphenyl)carbamoyl)-3-methoxycyclobutane-1-carboxamide], the EC50 in the series on U87 cells (Homo sapiens, U-87 MG, 72 h) was determined as 0.89 µM; in the series on RWPE1 cells it was 22.4 µM; in the series with 22RV1 cells (Homo sapiens, 22Rv1, 72 h), 0.35 µM; in the series with LNCaP cells (Homo sapiens, LNCaP, 72 h) it was 0.15 µM. Also, in series [1] (DMSO stock mixed with aqueous PBS buffer, filtered, read-out: Kinetic Solubility), the kinetic solubility came to 1 µM (≈ 0.411 µg/mL).

On to `O=C(NC(=O)C1CCCCC1)Nc1ccc(Oc2ncc(Cl)cn2)c(F)c1` [Compound 70, N-((4-((5-chloropyrimidin-2-yl)oxy)-3-fluorophenyl)carbamoyl)cyclohexanecarboxamide], for which the “EC50 (μM) in U87 cells” value in the series on U87 cells was “Inactive”. In the series on RWPE1 cells, the “EC50 (μM) in RWPE1 cells” value is reported as “Inactive”. The “EC50 (μM) in 22RV1 cells” value in the series with 22RV1 cells was “Inactive”. In the series on LNCaP cells, the “EC50 (μM) in LNCaP cells” value is given as “Inactive”.

Take `COC12CC(C(=O)NC(=O)Nc3ccc(Oc4nccs4)c(C)c3)(C1)C2` [drawing 270, 3-methoxy-N-((3-methyl-4-(thiazol-2-yloxy)phenyl)carbamoyl)bicyclo[1.1.1]pentane-1-carboxamide]: the EC50 with cancer cell lay in the range of 40 to 80 nM. In addition, in series [1] (setting [2]), the kinetic solubility fell in the range of 1.5 to 3.5 µM (≈ 0.56 to 1.31 µg/mL).

As to `COC12CC(C(=O)NC(=O)Nc3ccc(Oc4ccc(Cl)cn4)c(C)c3)(C1)C2` [drawing 271, N-((4-((5-chloropyridin-2-yl)oxy)-3-methylphenyl)carbamoyl)-3-methoxybicyclo[1.1.1]pentane-1-carboxamide], in the series on cancer cell, the EC50 lay in the range of 10 to 160 nM.

Take `COC12CC(C(=O)NC(=O)Nc3ccc(Oc4ncc(Cl)cn4)c(C)c3)(C1)C2` [drawing 272, N-((4-((5-chloropyrimidin-2-yl)oxy)-3-methylphenyl)carbamoyl)-3-methoxybicyclo[1.1.1]pentane-1-carboxamide]: the EC50 in the series on cancer cell is 40 to 80 nM. The solubility (kinetic) in series [1] (setting [2]) is 1.5 to 3.5 µM (≈ 0.604 to 1.41 µg/mL).

For the compound `COC12CC(C(=O)NC(=O)Nc3ccc(Oc4ccccn4)c(C)c3)(C1)C2` [drawing 273, 3-methoxy-N-((3-methyl-4-(pyridin-2-yloxy)phenyl)carbamoyl)bicyclo[1.1.1]pentane-1-carboxamide], in the series on cancer cell, the EC50 fell in the range of 100 to 400 nM.

Turning to `COC12CC(C(=O)NC(=O)Nc3ccc(Oc4ncccn4)c(C)c3)(C1)C2` [drawing 274, 3-methoxy-N-((3-methyl-4-(pyrimidin-2-yloxy)phenyl)carbamoyl)bicyclo[1.1.1]pentane-1-carboxamide], the EC50 in the series on cancer cell lay within 500 to 4000 nM. For the same compound, the solubility (kinetic) in series [1] (setting [2]) was 25 to 30 µM (≈ 9.21 to 11.1 µg/mL).

Turning to `COC12CC(C(=O)NC(=O)Nc3ccc(Oc4ncc(F)cn4)c(C)c3)(C1)C2` [drawing 275, N-((4-((5-fluoropyrimidin-2-yl)oxy)-3-methylphenyl)carbamoyl)-3-methoxybicyclo[1.1.1]pentane-1-carboxamide], the EC50 in the series on cancer cell was 500 to 4000 nM. Further, the solubility (kinetic) in series [1] (setting [2]) fell in the range of 85 to 91 µM (≈ 32.8 to 35.2 µg/mL).

In the case of `COC12CC(C(=O)NC(=O)Nc3ccc(Oc4ccc(F)cn4)c(C)c3)(C1)C2` [drawing 276, N-((4-((5-fluoropyridin-2-yl)oxy)-3-methylphenyl)carbamoyl)-3-methoxybicyclo[1.1.1]pentane-1-carboxamide], the EC50 in the series with cancer cell lay in the range of 50 to 350 nM.

As for `COC12CC(C(=O)NC(=O)Nc3cc(C)c(Oc4ncc(Cl)cn4)c(F)c3)(C1)C2` [drawing 277, N-((4-((5-chloropyrimidin-2-yl)oxy)-3-fluoro-5-methylphenyl)carbamoyl)-3-methoxybicyclo[1.1.1]pentane-1-carboxamide], the EC50 in the series with cancer cell lay within 34 to 65 nM. In series [1] (setting [2]), the kinetic solubility is 1.5 to 3.5 µM (≈ 0.631 to 1.47 µg/mL).

For `COC12CC(C(=O)NC(=O)Nc3cc(C)c(Oc4ccc(F)cn4)c(F)c3)(C1)C2` [drawing 278, N-((3-fluoro-4-((5-fluoropyridin-2-yl)oxy)-5-methylphenyl)carbamoyl)-3-methoxybicyclo[1.1.1]pentane-1-carboxamide], the EC50 with cancer cell lay in the range of 87 to 630 nM.

For `COC1CC(C(=O)NC(=O)Nc2ccc(C)c(Oc3nccs3)c2)C1` (stereo not shown) [drawing 279, 3-methoxy-N-((4-methyl-3-(thiazol-2-yloxy)phenyl)carbamoyl)cyclobutane-1-carboxamide], the EC50 with cancer cell fell in the range of 10 to 50 nM. Also, the solubility (kinetic) in series [1] (setting [2]) was 7 to 11 µM (≈ 2.53 to 3.98 µg/mL).

For the compound `COC1CC(C(=O)NC(=O)Nc2ccc(C)c(Oc3ccccn3)c2)C1` (stereo not shown) [drawing 280, 3-methoxy-N-((4-methyl-3-(pyridin-2-yloxy)phenyl)carbamoyl)cyclobutane-1-carboxamide], the EC50 in the series on cancer cell was 2 to 7 nM. Besides, the kinetic solubility in series [1] (setting [2]) was 10 to 14 µM (≈ 3.55 to 4.98 µg/mL).

Regarding `COC1CC(C(=O)NC(=O)Nc2ccc(C)c(Oc3ccc(F)cn3)c2)C1` (stereo not shown) [drawing 281, N-((3-((5-fluoropyridin-2-yl)oxy)-4-methylphenyl)carbamoyl)-3-methoxycyclobutane-1-carboxamide], in the series on cancer cell, the EC50 was 5 to 30 nM. In addition, in series [1] (setting [2]), the solubility (kinetic) was in the range of 5 to 9 µM (≈ 1.87 to 3.36 µg/mL).

Regarding `COC12CC(C(=O)NC(=O)Nc3ccc(C)c(Oc4ccccn4)c3)(C1)C2` [drawing 284, 3-methoxy-N-((4-methyl-3-(pyridin-2-yloxy)phenyl)carbamoyl)bicyclo[1.1.1]pentane-1-carboxamide], the EC50 in the series on cancer cell fell in the range of 20 to 70 nM.
